# US20230150926A1, “CATIONIC LIPIDS FOR LIPID NANOPARTICLE DELIVERY OF THERAPEUTICS TO HEPATIC STELLATE CELLS” (GENEVANT SCIENCES GMBH, priority 2020, published 2023)
# Legend:
# [1] = test system: reelin mRNA (RELN), a stellate cell target; experiment: Reelin (RELN) mRNA knock-down in liver after IV administration of siRNA LNP (QuantiGene, RELN:GAPD mRNA ratio); assay type: in vivo, Balb/C mice; settings: for reelin mRNA knock-down, activity at high dose: 1 mg/kg dose and greater
# Protocol: The lipid solution contained 4 components: a PEG-conjugated lipid, an ionizable lipid, cholesterol, and a phospholipid (e.g., DSPC). Lipid stocks were prepared using the lipid identities and molar ratios as described. The siRNA was diluted in 100 mM acetate, pH 4 buffer to prepare lipid nanoparticles (LNP) at a total lipid to siRNA weight ratio of approximately 10:1 to 20:1. Equal volumes of the lipid and nucleic acid solutions were blended at a flow rate of 400 mL/min through a T-connector, and diluted into PBS, pH 7.4. The ethanol was then removed and the external buffer replaced with Tris/NaCl buffer by dialysis. Following dialysis, the formulations were concentrated using VivaSpin concentrator units (MWCO 100,000) and filtered through a 0.2 µm pore sterile filter. Nucleic acid concentration was determined by the RiboGreen assay. Particle size and polydispersity were determined using a Malvern Nano Series Zetasizer.
# Generally, the LNP formulations were injected intravenously at 0.025 mg/kg to female Balb/C mice (5-8 weeks old) to measure activity of the HSC-LNP. Just prior to injection, the siRNA LNP stocks were filtered and diluted down to the required dosing concentration. […] Half the left lateral lobe of the liver was collected into 1.5 mL RNALater and stored at 2-8° C. overnight. The next day, an approximately 20-25 mg piece of liver was homogenized and the liver lysate used in a QuantiGene Assay, testing for relative levels of mouse target mRNA and GAPDH expression. Data from each animal was normalized to the liver weight used in the assay, and then relative to the GAPDH signal; data is reported as the average % knockdown of each group (where the PBS control group is 100% gene expression, 0% knockdown).
# [2] = Tolerability assessment: serum liver enzyme levels (ALT/AST) after IV administration of LNP; assay type: in vivo, Balb/C mice; settings: FIG. 4; 24 hours following IV administration of LNP; 0.03, 1, 3 mg/kg; relative to comparator lipid
# Protocol: Generally, the LNP formulations were injected intravenously at ~0.03 to 3 mg/kg to female Balb/C mice (5-8 weeks old) to assess tolerability of the HSC-LNP. Just prior to injection, the siRNA LNP stocks were filtered and diluted down to the required dosing concentration. At 2 h post-treatment, blood was collected via tail nicks and processed to plasma (for cytokine analysis by ELISA). At the terminal timepoint (24 h post-dose), blood was collected by cardiac puncture (target ≥ 800 µL) and sent to IDEXX for CRES 15 panel analysis (CBC/Diff & Clin Chem analysis). Briefly, blood (~300 uL) was collected into EDTA microtainer tubes, inverted 10x to mix the K2EDTA whole blood sample, and immediately stored at 4° C. to await same-day shipment to for hematology analysis. The remaining blood volume (~500 uL) was collected into serum separator tubes and inverted 5× to mix the SST sample, then allowed to clot for 1-1.5 h at room temp. The blood samples were centrifuged, and serum was collected for clinical chemistry analysis.
# [3] = FIG. 3, 24 hours following IV administration of LNP
SMILES,"knock-down as indicated by the RELN:GAPD mRNA ratio ([1]; FIG. 1, 0.1 mg/kg, versus comparator lipid and PBS)","reelin mRNA knock-down, potency relative to comparator lipid ([1]; FIG. 2, 48 hours following IV administration of LNP, Balb/C mice (n=4))","reelin mRNA knock-down, activity at high dose [1, 3]","reelin mRNA knock-down, potency relative to comparator lipid ([1]; FIG. 3, 24 hours following IV administration of LNP, low dose of 0.03 mg/kg)","potency relative to comparator lipid, as restated in the tolerability figure ([1]; FIG. 4 legend, no dose stated)",liver enzyme levels (ALT/AST) in serum [2]
CCCCC/C=C\CCCC(=O)OC(CCC/C=C\CCCCC)C(CCC/C=C\CCCCC)OC(=O)CCCCCN(C)C (stereo not shown) [representative lipid of the invention],excellent knock-down,equivalent potency to a comparator lipid at 4-fold lower dose,Saturating activity,significantly more potent than the comparator lipid,significantly more potent,slightly higher liver enzyme levels relative to the comparator lipid
"CCCCC/C=C\CCCC(CCC/C=C\CCCCC)C(CCC/C=C\CCCCC)OC(=O)CCCCCN(C)C (stereo not shown) [compound 100, reference compound]",–,–,Saturating activity,–,–,–
